A short description of this data set: in vitro. Particulars: human, hela cells, % viability.

The term viability denotes a read-out of living cells in per cent, often relative to untreated cells.

As for `COc1ccc2oc(C(=O)NC(C)(C)CN3CCCCC3)cc2c1` [CBK282053], the viability at 28.5 h, 10 µM amounted to 93.8%.
The same measure for `CCN1CCCCC1CNC(=O)Cn1nc(C)cc1C` (stereo not shown) [CBK282057]: 98.6%; for `COc1ccc(C(=O)N2CCN3C(=O)CCC32C)s1` (stereo not shown) [CBK282058]: 98.4%; for `CCCC(C(=O)NC(C)(C)CN1CCCCC1)n1nc(C)cc1C` (stereo not shown) [CBK282061]: 94.8%.
In the case of `Cc1ccccc1OCC1CCCN(C(=O)C2CC(=O)OC2(C)C)C1` (stereo not shown) [CBK282062], the viability at 28.5 h, 10 µM was 92.7%.
The same measure for `CN1CCCC(NC(=O)CCCOc2ccccc2F)C1` (stereo not shown) [CBK282072]: 101%; for `CC(=O)NCCn1cc2c(n1)[C@H]1CN(C(=O)c3ccccc3)C[C@H]1C2` [CBK282073]: 111%.
Take `CC(Cn1cccn1)C(=O)N1CCc2sccc2C1C` (stereo not shown) [CBK282074]: the viability at 28.5 h, 10 µM was found to be 103%.
In the case of `CN(CC(=O)N(C)CC(F)(F)F)Cc1cccnc1` [CBK282075] it was 89.1%.
For the compound `CCn1nc(C)c(C(C)NC(=O)c2c3c(nn2CC)CCCC3)c1C` (stereo not shown) [CBK282077], the viability at 28.5 h, 10 µM was determined as 85%.
As for `CCc1noc(C)c1C(=O)NCCN1CC(C)CC(C)C1` (stereo not shown) [CBK282081], the viability at 28.5 h, 10 µM turned out to be 113%.
In the case of `C=C1C2(C(=O)N3CCC(Oc4cccnc4)CC3)CCC(C2)C1(C)C` (stereo not shown) [CBK282082] it was 107%.
`CN(C)CC1CCCCN1C(=O)[C@@H]1C[C@@H]2C=C[C@H]1C2` (stereo partly shown) [CBK282086]: the viability at 28.5 h, 10 µM turned out to be 105%.
As for `Cc1nn(C)cc1C(C)NC(=O)C1CC2C=CC1C21CC1` (stereo not shown) [CBK282088], the viability at 28.5 h, 10 µM was found to be 100%.
Regarding `CC(Cn1cncn1)C(=O)NC(C)C1CC2CCC1C2` (stereo not shown) [CBK282089], the viability at 28.5 h, 10 µM came to 109%.
Regarding `CC(NC(=O)CCc1ccncc1)C1CC2CCC1C2` (stereo not shown) [CBK282090], the viability at 28.5 h, 10 µM stood at 99.8%.
The same measure for `CC(C)CN1CC(C(=O)N(C)CC2OCCc3ccccc32)CC1=O` (stereo not shown) [CBK282093]: 102%; for `CC1Cc2cc(C(=O)N3CCCCC3CCN3CCCC3)ccc2O1` (stereo not shown) [CBK282094]: 100%.
In the case of `Cc1c(C(=O)NCCN2CCC(C)CC2)oc2c1C(O)CC(C)(C)C2` (stereo not shown) [CBK282100] it was 87.1%; in that of `Cc1cccc(CN(Cc2ccccc2)C(=O)CCc2ccncc2)n1` [CBK282101], 99.1%.
The same measure for `Cc1cc(C)n(C(C)CC(=O)NCC(C)N2CCC(C)CC2)n1` (stereo not shown) [CBK282104]: 108%; for `COCc1ccc(C(=O)N2CCCC(c3cc4ncccc4[nH]3)C2)o1` (stereo not shown) [CBK282106]: 87%.
`CC(Cc1cccs1)C(=O)N1CCn2cnnc2C1` (stereo not shown) [CBK282109]: the viability at 28.5 h, 10 µM is 96%.
The same measure for `Cc1c(CN2CCC(CO)C2)cnn1Cc1ccccc1` (stereo not shown) [CBK282113]: 99.5%.
In the case of `OCCCn1cc(CN2CCC(CO)C2)c2ccccc21` (stereo not shown) [CBK282114] it was 98.6%.
In the case of `CC(Cc1ccccn1)NC(=O)Cc1ccc2c(c1)CCCO2` (stereo not shown) [CBK282115] it was 95%; in that of `CC(CC(=O)N1CCC(Oc2ccccc2F)CC1)n1cccn1` (stereo not shown) [CBK282118], 84.6%; in that of `CCn1cncc1CN1CC2CCCC(O)(c3ccc(F)cc3)C2C1` (stereo not shown) [CBK282119], 104%.
For the compound `COCCn1cc(CN2CCC(CO)C2)c2ccccc21` (stereo not shown) [CBK282123], the viability at 28.5 h, 10 µM amounted to 99.2%.
The same measure for `Cc1cc(CN2CCC(O)(c3cccnc3F)CC2)oc1C` [CBK282124]: 83%; for `CC1CCCN(CC(O)c2ccc3c(c2)CC(C)N3C(=O)C2CC2)C1` (stereo not shown) [CBK282125]: 99.2%.
Regarding `CC(C)C(=O)N1CCCc2cc(C(O)CN3CCCCC3)ccc21` (stereo not shown) [CBK282127], the viability at 28.5 h, 10 µM came out at 104%.
`Cc1ncc(CN(Cc2ccccn2)Cc2ccccc2Cl)n1C` [CBK282128]: the viability at 28.5 h, 10 µM amounted to 97.6%.
In the case of `Cn1cncc1CN(Cc1ccccn1)Cc1ccccc1Cl` [CBK282129] it was 105%; in that of `CCC(=O)N1CCCc2cc(C(O)CN3CCCCC3)ccc21` (stereo not shown) [CBK282130], 81.6%; in that of `O=C(CN1CCN(C2CCCC2)C(=O)C1)N1CCCc2ccccc21` [CBK282132], 81.7%.
In the case of `CCn1nc(NC(=O)C2Cc3ccccc3CN2C)cc1C` (stereo not shown) [CBK282133] it was 93.8%; in that of `CCCN1C[C@H](NC(=O)CC)[C@@H](c2ccc(OC)cc2)C1` [CBK282134], 82.3%; in that of `CCCN(CC1CCCO1)C(=O)c1cc2ccc(OC)cc2n1C` (stereo not shown) [CBK282139], 92.8%.
In the case of `CCn1cc(CN2CCCCCC2c2cc(C)on2)c(C)n1` (stereo not shown) [CBK282140] it was 80.7%; in that of `CCn1ncc(CN2CCCCCC2c2cc(C)on2)c1C` (stereo not shown) [CBK282141], 91.7%; in that of `CC(=O)N1CCCc2cc(C(O)CN3CCCC(C)C3)ccc21` (stereo not shown) [CBK282142], 84.1%.
In the case of `CC(=O)N1CCCc2cc(C(O)CN3CCCC(C)(C)C3)ccc21` (stereo not shown) [CBK282143], the viability at 28.5 h, 10 µM amounted to 94.3%.
Consider `O=C(C1CCCC1)N1CCCc2cc(C(O)CN3CCCC3)ccc21` (stereo not shown) [CBK282145], for which the viability at 28.5 h, 10 µM worked out at 94.2%.
With `CCN(CC)CC1CCCN(C(=O)Cn2ccc3ccc(F)cc32)C1` (stereo not shown) [CBK282146], the viability at 28.5 h, 10 µM was determined as 87.8%.
With `Cc1nc2c(C)cccc2cc1C(=O)NCCCc1ccccn1` [CBK282148], the viability at 28.5 h, 10 µM came to 82.8%.
The same measure for `CC(=O)N1CCCc2cc(C(O)CN(C)Cc3ccccc3)ccc21` (stereo not shown) [CBK282149]: 88.5%; for `CC(Cc1ccccn1)N(C)C(=O)c1cccc(N2CCCC2=O)c1` (stereo not shown) [CBK282153]: 104%; for `Cn1nc(C2CCCN(C(=O)c3cccc(F)c3)C2)c2cccnc21` (stereo not shown) [CBK282155]: 85.8%.
In the case of `CC1CC1C(=O)N1CCCC(c2cc3cccnc3[nH]2)C1` (stereo not shown) [CBK282156] it was 80.3%.
The same measure for `Cc1ccc2c(CC(=O)N(C)CCN(C)C)c(C)[nH]c2c1C` [CBK282157]: 102%; for `Cc1oc2ccc(O)cc2c1C(=O)N(C)CCN1CCCCC1` [CBK282158]: 83%; for `CCn1cc(CN2CCCCCC2c2cc(C)no2)c(C)n1` (stereo not shown) [CBK282159]: 95.6%.
`Cc1oc2ccc(O)cc2c1C(=O)NCCCN1CC(C)CC(C)C1` (stereo not shown) [CBK282161]: the viability at 28.5 h, 10 µM was found to be 110%.
As to `Cc1cccc(C2(O)CCN(C(=O)c3cc(C(C)C)nn3C)CC2)c1` [CBK282163], the viability at 28.5 h, 10 µM was 87.5%.
In the case of `CC1CC1C(=O)N1CCCC(c2nn(C)c3ncccc23)C1` (stereo not shown) [CBK282167] it was 85.7%; in that of `Cc1oc2c(c1CC(=O)N(C)CCN(C)C)C(=O)CC(C)(C)C2` [CBK282171], 105%.
The same measure for `CN(C)CCN(C)C(=O)Cc1csc(-c2ccccc2F)n1` [CBK282173]: 112%; for `Cc1cc(C)c2c(CC(=O)N(C)CCN(C)C)coc2c1` [CBK282174]: 106%.
Consider `CN(C)CCN(C)C(=O)Cc1csc(-c2cccc(Cl)c2)n1` [CBK282176], for which the viability at 28.5 h, 10 µM is 111%.
In the case of `O=C(CN1CCCC1=O)NC(Cc1cccs1)c1nccs1` (stereo not shown) [CBK282177], the viability at 28.5 h, 10 µM came to 104%.
Turning to `CN(CCN1CCCCC1)C(=O)C1(c2ccc(F)cc2)CC1` [CBK282178], the viability at 28.5 h, 10 µM turned out to be 95.4%.
The same measure for `COCCC(=O)NC(Cc1cccs1)c1nccs1` (stereo not shown) [CBK282180]: 83.3%; for `CN(C)CCN(C(=O)Cc1ccc2c(c1)CCC2)C1CCN(C)CC1` [CBK282182]: 84.6%; for `Cc1nccn1CC1(O)CCN(C(=O)Cc2cccc(F)c2)CC1` [CBK282184]: 109%.
For the compound `COCC(=O)N1CCC(c2cc3nc(C(F)(F)F)ccc3[nH]2)CC1` [CBK282185], the viability at 28.5 h, 10 µM stood at 110%.
The same measure for `Cc1nn(C)c(C)c1CN(C)C(=O)C(C)Cn1cc(Cl)cn1` (stereo not shown) [CBK282187]: 92.8%; for `COCc1ccc(C(=O)NCC2CCCOC2)o1` (stereo not shown) [CBK282188]: 83.3%; for `CC(C)CN1CC(C(=O)NCc2ccccc2-n2ccnc2)CC1=O` (stereo not shown) [CBK282189]: 104%.
As for `CC(Cn1cnc2ccccc21)C(=O)N1CCCCC1CN(C)C` (stereo not shown) [CBK282191], the viability at 28.5 h, 10 µM worked out at 106%.
In the case of `CC1Cc2cc(C(=O)N3CCCCC3CN(C)C)ccc2O1` (stereo not shown) [CBK282193] it was 110%; in that of `Cc1nc(C)c(C(=O)NCC2CCCOC2)s1` (stereo not shown) [CBK282194], 97.2%; in that of `Cc1cc(CNC(=O)C(C)n2cnc3ccccc32)on1` (stereo not shown) [CBK282196], 90.7%.
Consider `Cc1ccn(CCC(=O)NC(C)c2cccnc2)n1` (stereo not shown) [CBK282197], for which the viability at 28.5 h, 10 µM stood at 97.6%.
The same measure for `Cc1nc(SCC(=O)NC(C)c2cccnc2)oc1C` (stereo not shown) [CBK282198]: 93.2%; for `CC(NC(=O)CCn1cncn1)c1cccs1` (stereo not shown) [CBK282199]: 103%.
As to `CCc1noc(C)c1C(=O)NCC1CCCCN1CC` (stereo not shown) [CBK282201], the viability at 28.5 h, 10 µM worked out at 97.3%.
`CC(C(=O)NCCc1ccncc1)n1cnc2ccccc21` (stereo not shown) [CBK282202]: the viability at 28.5 h, 10 µM was 103%.
On to `CC(NC(=O)c1cc(C(F)(F)F)n(C)n1)c1cccnc1` (stereo not shown) [CBK282203], for which the viability at 28.5 h, 10 µM turned out to be 97.6%.
In the case of `CCN1CCCCC1CNC(=O)c1sc(C)nc1C` (stereo not shown) [CBK282206] it was 90.2%; in that of `CCN1CCCCC1CNC(=O)Cn1nc(C)c(C)c1C` (stereo not shown) [CBK282208], 105%.
In the case of `Cc1cc2ccccc2n1CC(=O)N1CCn2cnnc2C1` [CBK282209], the viability at 28.5 h, 10 µM was found to be 108%.
The same measure for `Cc1nccn1CC(=O)N1CCCC(C)(C(=O)NC2CCCC2)C1` (stereo not shown) [CBK282210]: 91.8%; for `COCc1nc2ccccc2n1CC(=O)N1CCC(c2ccccc2)C1` (stereo not shown) [CBK282211]: 97.1%; for `Cc1ccc(C2CCCN2C(=O)C(C)Cn2cncn2)cc1C` (stereo not shown) [CBK282213]: 98.9%.

The record behind these values is PMC12040169 (PLOS Biology, 2025).
